Data on 24 compounds can be found in patent US9896440B2, “Aryl substituted heterocyclyl sulfones” (GRÜNENTHAL GMBH, priority 2014, dated 2018).

The target in one experiment is T1, Human CaV2.2 channels (Homo sapiens, UniProt Q00975).
T1 construct: expressed in transfected cells; Kir2.3 also stably co-expressed
T1 sequence (Q00975 whole entry): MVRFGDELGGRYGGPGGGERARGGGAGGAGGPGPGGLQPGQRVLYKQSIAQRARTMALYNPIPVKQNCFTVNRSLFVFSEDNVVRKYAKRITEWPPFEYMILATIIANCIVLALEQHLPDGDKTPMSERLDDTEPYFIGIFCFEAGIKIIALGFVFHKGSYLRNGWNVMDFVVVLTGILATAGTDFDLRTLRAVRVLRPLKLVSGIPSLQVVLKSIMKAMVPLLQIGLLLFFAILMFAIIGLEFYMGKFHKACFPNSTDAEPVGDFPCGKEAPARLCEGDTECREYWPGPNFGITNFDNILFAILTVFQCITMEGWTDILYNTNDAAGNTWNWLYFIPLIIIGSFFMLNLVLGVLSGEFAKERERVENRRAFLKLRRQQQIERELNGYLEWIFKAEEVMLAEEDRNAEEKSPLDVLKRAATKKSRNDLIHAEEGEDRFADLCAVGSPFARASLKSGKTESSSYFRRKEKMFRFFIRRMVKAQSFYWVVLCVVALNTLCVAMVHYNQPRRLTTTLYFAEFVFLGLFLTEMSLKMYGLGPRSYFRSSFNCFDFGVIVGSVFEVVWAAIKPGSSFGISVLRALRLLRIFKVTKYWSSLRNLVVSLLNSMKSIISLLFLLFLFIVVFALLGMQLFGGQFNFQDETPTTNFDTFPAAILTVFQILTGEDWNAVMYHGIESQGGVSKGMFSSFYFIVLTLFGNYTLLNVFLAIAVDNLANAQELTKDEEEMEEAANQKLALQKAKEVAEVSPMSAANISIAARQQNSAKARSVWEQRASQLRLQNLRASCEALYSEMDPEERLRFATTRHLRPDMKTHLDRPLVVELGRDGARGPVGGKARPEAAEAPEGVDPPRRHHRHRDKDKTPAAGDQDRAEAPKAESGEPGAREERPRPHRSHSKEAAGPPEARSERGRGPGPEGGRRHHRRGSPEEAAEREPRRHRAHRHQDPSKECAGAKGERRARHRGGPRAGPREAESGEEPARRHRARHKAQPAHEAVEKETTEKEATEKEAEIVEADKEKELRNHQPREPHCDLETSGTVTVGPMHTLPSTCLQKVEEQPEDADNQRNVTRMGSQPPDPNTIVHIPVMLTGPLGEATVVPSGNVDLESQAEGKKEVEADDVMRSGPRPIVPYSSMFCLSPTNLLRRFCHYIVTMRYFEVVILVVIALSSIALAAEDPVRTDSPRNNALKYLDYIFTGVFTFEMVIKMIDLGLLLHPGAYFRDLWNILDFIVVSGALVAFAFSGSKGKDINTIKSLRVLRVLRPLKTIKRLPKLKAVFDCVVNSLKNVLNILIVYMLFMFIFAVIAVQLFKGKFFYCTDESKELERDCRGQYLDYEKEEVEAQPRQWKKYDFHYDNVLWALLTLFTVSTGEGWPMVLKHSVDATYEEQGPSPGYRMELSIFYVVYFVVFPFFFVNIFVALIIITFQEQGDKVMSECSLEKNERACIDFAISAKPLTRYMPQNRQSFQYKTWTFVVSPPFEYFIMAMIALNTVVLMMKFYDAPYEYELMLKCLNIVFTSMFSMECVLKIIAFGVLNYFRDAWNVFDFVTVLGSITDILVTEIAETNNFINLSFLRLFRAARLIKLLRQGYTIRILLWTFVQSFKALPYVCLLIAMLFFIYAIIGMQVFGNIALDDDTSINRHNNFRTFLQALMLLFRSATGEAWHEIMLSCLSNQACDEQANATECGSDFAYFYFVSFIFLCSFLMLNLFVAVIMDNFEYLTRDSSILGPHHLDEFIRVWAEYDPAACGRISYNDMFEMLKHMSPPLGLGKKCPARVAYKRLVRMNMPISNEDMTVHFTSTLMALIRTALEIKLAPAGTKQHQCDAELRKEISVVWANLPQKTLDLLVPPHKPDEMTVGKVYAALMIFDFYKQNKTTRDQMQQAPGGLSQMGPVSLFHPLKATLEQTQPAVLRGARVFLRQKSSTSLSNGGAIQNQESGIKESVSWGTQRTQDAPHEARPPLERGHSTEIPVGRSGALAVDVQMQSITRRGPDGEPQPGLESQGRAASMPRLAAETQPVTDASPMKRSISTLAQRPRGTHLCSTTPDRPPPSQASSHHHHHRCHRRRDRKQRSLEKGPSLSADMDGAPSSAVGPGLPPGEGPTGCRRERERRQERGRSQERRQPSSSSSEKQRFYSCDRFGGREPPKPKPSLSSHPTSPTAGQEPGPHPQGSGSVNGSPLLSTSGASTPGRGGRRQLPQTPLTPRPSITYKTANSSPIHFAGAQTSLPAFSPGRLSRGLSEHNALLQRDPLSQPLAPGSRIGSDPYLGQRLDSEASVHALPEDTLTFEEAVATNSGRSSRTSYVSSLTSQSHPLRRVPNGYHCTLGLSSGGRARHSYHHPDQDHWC
As to the kind of experiment: Fluorescence assay for CaV2.2 channels using potassium depolarization to induce channel opening (FLIPR, Fluo 4). As to conditions: 3 μM test compound, 30 mM KCl assay buffer (inactivated channel state), HEK293 cells. The class given is cell-based. From the text: In the process, the Ca^2+ influx is quantified in the FLIPR assay with the aid of a Ca^2+-sensitive dye (type Fluo-4, Molecular Probes Europe BV, Leiden, the Netherlands) in a fluorescent imaging plate reader (FLIPR 3, Molecular Devices, Sunnyvale, USA), as described hereinafter.
Human CaV2.2 channels were stably expressed in HEK293 cells together with alpha2-delta and beta subunits of voltage gated calcium channels. In addition, an inwardly rectifying potassium channel (Kir2.3) was stably expressed in these cells to augment control of the cell membrane potential by the concentration of extracellular potassium ions. Raise of the extracellular potassium concentration leads to depolarization of the membrane potential and thus regulates the voltage dependent state of CaV2.2 channels. For preparation, cells were seeded in black poly-D-lysine coated 96-well plates (Becton Dickinson, Biocoat 4640) in 100 μL medium [500 mL DMEM/F-12 plus Glutamax (Invitrogen 31331-093) plus 5.5 mL MEM NEAA 100× (Invitrogen 11140-035) plus 50 mL FBS decomplemented (Invitrogen 10270-106) plus 200 μg/mL Geneticin (Invitrogen 10131-027) plus 50 μg/mL Hygromycin B (Invitrogen 10687-010) plus 2 μg/mL Blasticidin (anti-bl5b Invivo-Gen) plus 0.2 μg/mL Puromycin (A 11138-03)] at a cell density of 30.000 cells per well. Plates were incubated at 37° C. (5% CO2) for 20 to 23 h. On the day of experiment medium was discarded and cells were loaded with Fluo 4 by addition of 100 μL of basic assay buffer (10 mM HEPES, 1 mM KCl, 149 mM NaCl, 0.8 mM CaCl2, 1.7 mM MgCl2, 10 mM Glucose, 0.1% BSA. pH 7.4) containing 2 μM Fluo 4 (Molecular Probes; F-14201), 0.01% pluronic acid (Molecular Probes; P-6866) and 2.5 mM probenecid (Molecular Probes; P36400). Cells were incubated in the dark at 25° C. for 60 min. Then dye containing buffer was discarded and 100 μL basic (1 mM KCl) or alternative (30 mM KCl) assay buffer was added. The alternative assay buffer contained altered concentrations of KCl (30 mM) and NaCl (120 mM) and was used in order to promote the inactivated channel state. After that 25 μL of basic or alternative assay buffer with or without test compound were added and cells were incubated again in the dark at 25° C. for 15 min. Fluorescence intensity was measured on a FLIPR 3 instrument (Molecular Devices Corp., Sunnyvale, Calif.) with excitation at 480 nm and emission at 535 nm. After continuously reading fluorescence for 30 sec, 50 μL of basic assay buffer containing 210 mM KCl (NaCl omitted) were added for depolarization. Peak fluorescent signal intensity was determined and the amplitude of the peak signal, normalized to base line, was used to measure channel inhibition by test compounds.
As for `CC1(S(=O)(=O)c2cccc(C(F)(F)F)c2)CCOC(c2ccc(S(C)(=O)=O)c(S(C)(=O)=O)c2)C1` (single isomer, unassigned) [SC-133, 2-[3,4-Bis(methylsulfonyl)-phenyl]-4-methyl-4-[[3-(trifluoromethyl)phenyl]sulfonyl]-tetrahydro-pyran], the “Activity Category: %-Inhib (CaV2.2) @3 μM @30 mM KCl” value (from here on “Activity Category: %-Inhib”) is recorded as “A (%-Inhibition >95%)”.

Turning to `CC1(S(=O)(=O)c2cccc(C(F)(F)F)c2)CCOC(c2ccc(-n3cncn3)cc2)C1` (single isomer, unassigned) [SC-135, 1-[4-[4-Methyl-4-[[3-(trifluoromethyl)phenyl]sulfonyl]-tetrahydro-pyran-2-yl]-phenyl]-1H-[1,2,4]triazole], the “Activity Category: %-Inhib” value is listed as “A (%-Inhibition >95%)”.

With `CC1(S(=O)(=O)c2cccc(C(F)(F)F)c2)CCOC(c2ccc(F)c(C(N)=O)c2)C1` (single isomer, unassigned) [SC-138, 2-Fluoro-5-[4-methyl-4-[[3-(trifluoromethyl)phenyl]sulfonyl]-tetrahydro-pyran-2-yl]-benzamide], the “Activity Category: %-Inhib” value was “C (%-Inhibition >40% up to ≦75%)”.

With `CC1(S(=O)(=O)c2cccc(C(F)(F)F)c2)CCOC(c2ccc(F)c(C(N)=O)c2)C1` (single isomer, unassigned) [SC-139, 2-Fluoro-5-[4-methyl-4-[[3-(trifluoromethyl)phenyl]sulfonyl]-tetrahydro-pyran-2-yl]-benzamide], the “Activity Category: %-Inhib” value was “B (%-Inhibition >75% up to ≦95%)”.

Turning to `CC1(S(=O)(=O)c2cccc(C(F)(F)F)c2)CCOC(COc2ccc(S(C)(=O)=O)cc2F)C1` (single isomer, unassigned) [SC-149, 2-[(2-Fluoro-4-methylsulfonyl-phenoxy)-methyl]-4-methyl-4-[[3-(trifluoromethyl)phenyl]sulfonyl]-tetrahydro-pyran], the “Activity Category: %-Inhib” value is “A (%-Inhibition >95%)”.

Still in this experiment, the particulars now being: HEK293, 3 μM test compound, 30 mM KCl assay buffer (inactivated channel state), HEK293 cells; read-out: Activity Category: %-Inhib (CaV2.2) @3 μM @30 mM KCl.
For the compound `CC1(C)CC(C)(S(=O)(=O)c2cccc(C(F)(F)F)c2)CC(c2ccc(Cl)cc2)O1` (racemic) [SC-302, 6-(4-Chlorophenyl)-2,2,4-trimethyl-4-[[3-(trifluoromethyl)phenyl]sulfonyl]-tetrahydro-pyran], the inhibition at 3 µM was in the range of 75 to 95%.

With `CC1(S(=O)(=O)c2cc(F)cc(C(F)(F)F)c2)CCOC(c2ccc(Cl)cc2)C1` (racemic) [SC-305, 2-(4-Chlorophenyl)-4-[[3-fluoro-5-(trifluoromethyl)-phenyl]sulfonyl]-4-methyl-tetrahydro-pyran], the inhibition at 3 µM is 75 to 95%.

With `CC1(S(=O)(=O)c2cccc(OC(F)(F)F)c2)CCOC(c2ccc(Cl)cc2)C1` (racemic) [SC-315, 2-(4-Chlorophenyl)-4-methyl-4-[[3-(trifluoromethyloxy)-phenyl]sulfonyl]-tetrahydro-pyran], the inhibition at 3 µM was more than 95%.

For `CC1(S(=O)(=O)c2cccc(OC(F)(F)F)c2)CCOC(c2ccc(S(C)(=O)=O)cc2F)C1` (racemic) [SC-504, 2-(2-Fluoro-4-methylsulfonyl-phenyl)-4-methyl-4-[[3-(trifluoromethyloxy)-phenyl]sulfonyl]-tetrahydro-pyran], the inhibition at 3 µM is more than 95%.

Turning to `CC(C)c1cccc(S(=O)(=O)C2(C)CCOC(c3ccc(S(C)(=O)=O)cc3F)C2)c1` (racemic) [SC-505, 2-(2-Fluoro-4-methylsulfonyl-phenyl)-4-[(3-isopropyl-phenyl)sulfonyl]-4-methyl-tetrahydro-pyran], the inhibition at 3 µM was more than 95%.

With `CC1(S(=O)(=O)c2cccc(C(F)F)c2)CCOC(c2ccc(S(C)(=O)=O)cc2F)C1` (racemic) [SC-508, 4-[[3-(Difluoro-methyl)-phenyl]sulfonyl]-2-(2-fluoro-4-methylsulfonyl-phenyl)-4-methyl-tetrahydro-pyran], the inhibition at 3 µM was 75 to 95%.

On to `CC(C)Oc1cccc(S(=O)(=O)C2(C)CCOC(c3ccc(S(C)(=O)=O)cc3F)C2)c1` (racemic) [SC-511, 2-(2-Fluoro-4-methylsulfonyl-phenyl)-4-[(3-isopropoxy-phenyl)sulfonyl]-4-methyl-tetrahydro-pyran], for which the inhibition at 3 µM fell in the range of 75 to 95%.

Consider `CC1(S(=O)(=O)c2cccc(C3CC3)c2)CCOC(c2ccc(S(C)(=O)=O)cc2F)C1` (racemic) [SC-514, 4-[(3-Cyclopropyl-phenyl)sulfonyl]-2-(2-fluoro-4-methylsulfonyl-phenyl)-4-methyl-tetrahydro-pyran], for which the inhibition at 3 µM is more than 95%.

As for `CC1(S(=O)(=O)c2cc(F)cc(C(F)(F)F)c2)CCOC(c2ccc(S(C)(=O)=O)cc2F)C1` (racemic) [SC-515, 2-(2-Fluoro-4-methylsulfonyl-phenyl)-4-[[3-fluoro-5-(trifluoromethyl)-phenyl]sulfonyl]-4-methyl-tetrahydro-pyran], the inhibition at 3 µM was more than 95%.

Regarding `CC1(S(=O)(=O)c2cccc(OC(F)F)c2)CCOC(c2ccc(S(C)(=O)=O)cc2F)C1` (racemic) [SC-520, 4-[[3-(Difluoro-methoxy)-phenyl]sulfonyl]-2-(2-fluoro-4-methylsulfonyl-phenyl)-4-methyl-tetrahydro-pyran], the inhibition at 3 µM fell in the range of 75 to 95%.

`CC1(S(=O)(=O)c2cccc(C(F)(F)F)c2)CCC(c2ccc(Cl)cc2)OC1` (single isomer, unassigned) [SC-116, 2-(4-Chlorophenyl)-5-methyl-5-[[3-(trifluoromethyl)phenyl]sulfonyl]-tetrahydro-pyran]: the inhibition at 3 µM fell in the range of 40 to 75%.

For the compound `CC1(c2ccc(Cl)cc2)CC(S(=O)(=O)c2cccc(C(F)(F)F)c2)CCO1` (single isomer, unassigned) [SC-117, 2-(4-Chlorophenyl)-2-methyl-4-[[3-(trifluoromethyl)phenyl]sulfonyl]-tetrahydro-pyran], the inhibition at 3 µM is more than 95%.

Consider `CC1(S(=O)(=O)c2cccc(C(F)(F)F)c2)CCOC(COc2ccc(Cl)cc2)C1` (single isomer, unassigned) [SC-127, 2-((4-chlorophenoxy)methyl)-4-methyl-4-((3-(trifluoromethyl)phenyl)sulfonyl)tetrahydro-2H-pyran], for which the inhibition at 3 µM is more than 95%.

As to `CC1(S(=O)(=O)c2cccc(C(F)(F)F)c2)CCOC(Cc2ccc(Cl)cc2)C1` (single isomer, unassigned) [SC-130, 2-[(4-Chlorophenyl)-methyl]-4-methyl-4-[[3-(trifluoromethyl)phenyl]sulfonyl]-tetrahydro-pyran], the inhibition at 3 µM was in the range of 75 to 95%.

Consider `CC1(S(=O)(=O)c2cccc(C(F)(F)F)c2)CCOC(c2ccc(S(C)(=O)=O)c(S(C)(=O)=O)c2)C1` (single isomer, unassigned) [SC-132, 2-[3,4-Bis(methylsulfonyl)-phenyl]-4-methyl-4-[[3-(trifluoromethyl)phenyl]sulfonyl]-tetrahydro-pyran], for which the inhibition at 3 µM is 75 to 95%.

As for `CC1(S(=O)(=O)c2cccc(C(F)(F)F)c2)CCOC(c2ccc(-n3cncn3)cc2)C1` (single isomer, unassigned) [SC-134, 1-[4-[4-Methyl-4-[[3-(trifluoromethyl)phenyl]sulfonyl]-tetrahydro-pyran-2-yl]-phenyl]-1H-[1,2,4]triazole], the inhibition at 3 µM lay within 75 to 95%.

For `CC1(S(=O)(=O)c2cccc(C(F)(F)F)c2)CCOC(c2ccc(F)c(C#N)c2)C1` (single isomer, unassigned) [SC-136, 2-Fluoro-5-[4-methyl-4-[[3-(trifluoromethyl)phenyl]sulfonyl]-tetrahydro-pyran-2-yl]-benzonitrile], the inhibition at 3 µM is more than 95%.

As for `CC1(S(=O)(=O)c2cc(F)cc(C(F)(F)F)c2)CCOC(c2ccc(S(C)(=O)=O)cc2)C1` (single isomer, unassigned) [SC-142, 4-[[3-Fluoro-5-(trifluoromethyl)-phenyl]sulfonyl]-4-methyl-2-(4-methylsulfonyl-phenyl)-tetrahydro-pyran], the inhibition at 3 µM was 75 to 95%.

Regarding `CC1(S(=O)(=O)c2cccc(C(F)(F)F)c2)CCOC(COc2ccc(S(C)(=O)=O)cc2F)C1` (single isomer, unassigned) [SC-148, 2-[(2-Fluoro-4-methylsulfonyl-phenoxy)-methyl]-4-methyl-4-[[3-(trifluoromethyl)phenyl]sulfonyl]-tetrahydro-pyran], the inhibition at 3 µM lay in the range of 75 to 95%.
